In patent US5780588A, “Elucidation and synthesis of selected pentapeptides” (priority 1993, dated 1998):

Columns and labels:
[1] = tested on: LOX Human Melanoma Xenograph; test: Dolastatin 10 in murine in vivo system, LOX Human Melanoma Xenograph (Nude Mouse)
From the text: (§1) Presently Dolastatin 10, a linear pentapeptide represents the most important member and is a potentially useful antineoplastic agent.

[2] = tested on: OVCAR-3 Human Ovary Xenograph; test: Dolastatin 10 in murine in vivo system, OVCAR-3 Human Ovary Xenograph Nude Mouse; conditions: 40 μg/kg
From the text: The synthesis of potentially useful peptides presents one of the most essential and promising approaches to new types of anticancer and immunosuppressant drugs. The Dolastatins, an unprecedented series of linear and cyclic antineoplastic and/or cytostatic peptides isolated from Indian Ocean sea hare Dolabella auricularia represent excellent leads for synthetic modification. The very productive sea hare Dolabella auricularia has produced a number of structurally distinct peptides with excellent antineoplastic activity. Presently Dolastatin 10, a linear pentapeptide represents the most important member and is a potentially useful antineoplastic agent. […] Recently the total synthesis and absolute configuration of this structurally unique and biologically active peptide was reported.

[3] = tested on: Human Mammary Xenograph; test: Dolastatin 10 in murine in vivo system, Human Mammary Xenograph Nude Mouse
From the text: as §1

[4] = tested on: P388 Lymphocytic Leukemia; test: Dolastatin 10 in murine in vivo system, P388 Lymphocytic Leukemia
From the text: as §1

[5] = tested on: NCI-H460; test: Inhibition of human cancer cell line NCI-H460 (Lung-NSC); format: cell-based
From the text: (§2) Current research in the control of cancer in the United States is coordinated by the National Cancer Institute (NCI). To determine whether a substance has anti-cancer properties, the NCI has established a systematic protocol. […] The protocol, and the established statistical means for analyzing the results obtained by the standardized testing are fully described in the literature. See: Boyd, Dr. Michael R., Principles & Practice of Oncology, PPO Updates, Volume 3, Number 10, October 1989, for an in depth description of the testing protocol; and Paull, K. D., "Display and Analysis of Patterns of Differential Activity of Drugs Against Human Tumor Cell Lines; Development of Mean Graph and COMPARE Algorithm", Journal of the National Cancer Institute Reports, Vol. 81, No. 14, Page 1088, Jul. 14, 1989 for a description of the methods of statistical analysis. Both of these references are incorporated herein by this reference thereto.
(§3) The dipeptides (1a-1e) were in turn prepared by coupling dolaproine (5) with the respective amino acids. All compounds were characterized (physical and spectroscopic data) and tested against the murine lymphocytic P388 leukemia cell line as well as six major human cancer cell lines.

[6] = tested on: KM20L2; test: Inhibition of human cancer cell line KM20L2 (Colon); format: cell-based
From the text: as §2, §3

[7] = tested on: murine lymphocytic P388 leukemia cell line; test: Inhibition of murine lymphocytic P388 leukemia cell line; format: cell-based; conditions: MOUSE LEUKEMIA P388
From the text: as §3

[8] = tested on: SK-MEL-3; test: Inhibition of human cancer cell line SK-MEL-3 (Melanoma); format: cell-based
From the text: as §2, §3

[9] = tested on: OVCAR-3; test: Inhibition of human cancer cell line OVCAR-3 (Ovarian); format: cell-based
From the text: as §2, §3

[10] = tested on: SF-295; test: Inhibition of human cancer cell line SF-295 (CNS); format: cell-based
From the text: as §2, §3

[11] = tested on: A498; test: Inhibition of human cancer cell line A498 (Renal); format: cell-based
From the text: as §2, §3

Substance	GI-50 [5] [µg/mL]	LC-50 [5] [µg/mL]	TGI [5] [ng/mL]	GI-50 [6] [µg/mL]	LC-50 [6] [µg/mL]	TGI [6] [ng/mL]	ED50 [7] [ng/mL]	GI-50 [8] [µg/mL]	LC-50 [8] [µg/mL]	TGI [8] [ng/mL]	GI-50 [9] [µg/mL]	LC-50 [9] [µg/mL]	TGI [9] [ng/mL]	GI-50 [10] [µg/mL]	LC-50 [10] [µg/mL]	TGI [10] [ng/mL]	GI-50 [11] [µg/mL]	LC-50 [11] [µg/mL]	TGI [11] [ng/mL]	other results
Dolastatin 10																				T/C ([1]; 3.25 μg/kg): 170; T/C ([1]; 6.5 μg/kg): 206; T/C ([1]; 13 μg/kg): 301; T/C ([1]; 26 μg/kg): 301; T/C [2]: 300; T/C ([3]; 6.25 μg/kg): 178; T/C ([3]; 13 μg/kg): 137; T/C ([4]; 3.25 μg/kg): 146; T/C ([4]; 6.5 μg/kg): 155
Dov-Val-Dil-Dap-Ile-OCH3 [pentapeptide 3d]	< 0.0001	> 1	0.88	< 0.0001	> 1	< 0.1	0.441	< 0.0001	> 1	< 0.1	< 0.0001	0.043	< 0.1	< 0.0001	> 1	170	< 0.0001	> 1	< 0.1	
Dov-Val-Dil-Dap-Met-OCH3 [pentapeptide 3e]	< 0.0001	> 1	130	< 0.0001	> 1	0.15	0.389	< 0.0001	> 1	> 1000	< 0.0001	> 1	< 0.1	< 0.0001	> 1	56	< 0.0001	> 1	> 1000	
Dov-Val-Dil-Dap-Phe-NH2 [pentapeptide 3b]	0.000095	> 1	11	< 0.0001	0.083	19	19.5	0.00017	> 1	12	0.0076	0.066	3.7	0.00085	> 1	49	0.00097	> 1	6.2	
Dov-Val-Dil-Dap-Phe-OCH3 [pentapeptide 3a]	< 0.0001	> 1	11	< 0.0001	> 1	1.1	66.7	< 0.0001	> 1	0.68	< 0.0001	> 1	1.1	< 0.0001	> 1	0.17	< 0.0001	> 1	2.9	
Dov-Val-Dil-Dap-Pro-OCH3 [pentapeptide 3c]	< 0.0001	> 1	1.3	< 0.0001	> 1	2.2	8.8	< 0.0001	> 1	< 0.1	< 0.0001	> 1	< 0.1	< 0.0001	> 1	2.4	< 0.0001	> 1	5.4	
